Assay results: PubChem BioAssay (NCI)
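All cell lines were grown in 96-well plates and treated with compound for 48 hours. TGI denotes the concentration required for complete inhibition of growth.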

What was measured:
Assay in all cases: NCI anticancer screen, dose series, 48 h
OVCAR-8 ovarian = tested on: OVCAR-8 ovarian
UACC-257 melanoma = tested on: UACC-257 melanoma
RXF 393 renal = tested on: RXF 393 renal
SK-MEL-5 melanoma = tested on: SK-MEL-5 melanoma
DLD-1 colon = tested on: DLD-1 colon
TK-10 renal = tested on: TK-10 renal
HOP-62 NSCLC = tested on: HOP-62 NSCLC
COLO 205 colon = tested on: COLO 205 colon
ACHN renal = tested on: ACHN renal
OVCAR-4 ovarian = tested on: OVCAR-4 ovarian
SR leukemia = tested on: SR leukemia
EKVX NSCLC = tested on: EKVX NSCLC
UACC-62 melanoma = tested on: UACC-62 melanoma
HL-60(TB) leukemia = tested on: HL-60(TB) leukemia
SNB-78 CNS = tested on: SNB-78 CNS
UO-31 renal = tested on: UO-31 renal
DMS 273 small cell lung = tested on: DMS 273 small cell lung
A549 NSCLC = tested on: A549 NSCLC
SK-MEL-28 melanoma = tested on: SK-MEL-28 melanoma
LOX IMVI melanoma = tested on: LOX IMVI melanoma
CCRF-CEM leukemia = tested on: CCRF-CEM leukemia
IGROV1 ovarian = tested on: IGROV1 ovarian
SNB-75 CNS = tested on: SNB-75 CNS
SK-OV-3 ovarian = tested on: SK-OV-3 ovarian
SF-268 CNS = tested on: SF-268 CNS
NCI-H460 lung = tested on: NCI-H460 lung
M19-MEL melanoma = tested on: M19-MEL melanoma
XF 498 CNS = tested on: XF 498 CNS
HCT-15 colon = tested on: HCT-15 colon
HCT-116 colon = tested on: HCT-116 colon
MOLT-4 leukemia = tested on: MOLT-4 leukemia
SK-MEL-2 melanoma = tested on: SK-MEL-2 melanoma
SW-620 colon = tested on: SW-620 colon
SF-539 CNS = tested on: SF-539 CNS
M14 melanoma = tested on: M14 melanoma
KM20L2 colon = tested on: KM20L2 colon
SF-295 CNS = tested on: SF-295 CNS
KM12 colon = tested on: KM12 colon
786-0 renal = tested on: 786-0 renal
SNB-19 CNS = tested on: SNB-19 CNS
NCI-H23 lung = tested on: NCI-H23 lung
HT29 colon = tested on: HT29 colon
NCI-H522 lung = tested on: NCI-H522 lung
MALME-3M melanoma = tested on: MALME-3M melanoma
U251 CNS = tested on: U251 CNS
SN12C renal = tested on: SN12C renal
NCI-H226 lung = tested on: NCI-H226 lung
OVCAR-3 ovarian = tested on: OVCAR-3 ovarian
LXFL 529 NSCLC = tested on: LXFL 529 NSCLC
K-562 leukemia = tested on: K-562 leukemia
HCC-2998 colon = tested on: HCC-2998 colon

`CC(=O)NC1=C(NCCN(C)C)C(=O)c2ccccc2C1=O` showed a TGI (OVCAR-8 ovarian) of 31.6 µM, a TGI (UACC-257 melanoma) of 16.8 µM and a TGI (RXF 393 renal) greater than 50 µM. It also gave a TGI (SK-MEL-5 melanoma) of 14.1 µM, a TGI (DLD-1 colon) greater than 50 µM and a TGI (TK-10 renal) greater than 50 µM. It also gave a TGI (HOP-62 NSCLC) greater than 50 µM, a TGI (COLO 205 colon) of 17.7 µM and a TGI (ACHN renal) greater than 50 µM. It also gave a TGI (OVCAR-4 ovarian) of 17.7 µM, a TGI (SR leukemia) greater than 50 µM and a TGI (EKVX NSCLC) greater than 50 µM. It also gave a TGI (UACC-62 melanoma) of 22.1 µM, a TGI (HL-60(TB) leukemia) of 22.5 µM and a TGI (SNB-78 CNS) greater than 50 µM. For the same molecule, the TGI (UO-31 renal) was greater than 50 µM, the TGI (DMS 273 small cell lung) was 27.6 µM and the TGI (A549 NSCLC) was 48.8 µM. For the same molecule, the TGI (SK-MEL-28 melanoma) was greater than 50 µM, the TGI (LOX IMVI melanoma) was greater than 50 µM and the TGI (CCRF-CEM leukemia) was greater than 50 µM. The TGI (IGROV1 ovarian) was greater than 50 µM, the TGI (SNB-75 CNS) was greater than 50 µM and the TGI (SK-OV-3 ovarian) was greater than 50 µM. The TGI (SF-268 CNS) was greater than 50 µM, the TGI (NCI-H460 lung) was greater than 50 µM and the TGI (M19-MEL melanoma) was 14.3 µM. It also gave a TGI (XF 498 CNS) of 35.1 µM, a TGI (HCT-15 colon) of 20.5 µM and a TGI (HCT-116 colon) of 18.6 µM. The TGI (MOLT-4 leukemia) was greater than 50 µM, the TGI (SK-MEL-2 melanoma) was greater than 50 µM and the TGI (SW-620 colon) was greater than 50 µM. It also gave a TGI (SF-539 CNS) of 34.4 µM, a TGI (M14 melanoma) greater than 50 µM and a TGI (KM20L2 colon) greater than 50 µM. It also gave a TGI (SF-295 CNS) greater than 50 µM, a TGI (KM12 colon) greater than 50 µM and a TGI (786-0 renal) greater than 50 µM. The TGI (SNB-19 CNS) was greater than 50 µM, the TGI (NCI-H23 lung) was 27.8 µM and the TGI (HT29 colon) was 38.6 µM. The TGI (NCI-H522 lung) was 23.8 µM, the TGI (MALME-3M melanoma) was 14.3 µM and the TGI (U251 CNS) was 29 µM. The TGI (SN12C renal) was 27.8 µM, the TGI (NCI-H226 lung) was greater than 50 µM and the TGI (OVCAR-3 ovarian) was greater than 50 µM. The TGI (LXFL 529 NSCLC) was greater than 50 µM, the TGI (K-562 leukemia) was greater than 50 µM and the TGI (HCC-2998 colon) was greater than 50 µM.
